This is an account of results in patent US20250256007A1, “GELMA POLYMER COMPOSITIONS COMPRISING CELLS” (GelMEDIX, Inc., priority 2022, published 2025).

Data set [1] is described as follows: Minimum propagator concentration for hydrogel formation. The data set is classed as physicochemical. The following applies: 1 minute crosslinking at ˜0.43 W. The procedure:
(§1) Each of the three propagators (NVC, NVP, EGDA) were combined with G5(80) [5% GelMA, 80% DoM] at 10 uL/mL propagator concentration, and then gelled. Average Young's Modulus (kPa) for resulting hydrogels were as follows: EGDA [7.2494 kPa]; NVP [6.4995 kPa]; NVC [3.4744 kPa]. NVP and EGDA were also tested for a minimum concentration in G5 (10) and G5(80) which would still allow for hydrogel formation (1 minute crosslinking at ˜0.43 W). Minimum propagator concentrations for hydrogel formation were as follows: G5 (10) [NVP—5 uL/mL; EGDA—1.5 uL/mL]; G5 (80) [NVP—0.3 uL/mL; EGDA—0.1 uL/mL]

Data set [2] is described as follows: Young's Modulus of hydrogels with radical propagators. Particulars: propagator at 10 uL/mL in G5(80) [5% GelMA, 80% DoM], gelled. The data set is classed as physicochemical. The procedure: as §1
Another data set deals with RPE cells. As to the kind of experiment: Cytotoxicity studies of propagators with RPE cells. An excerpt: Cytotoxicity studies were also completed with RPE cells for: NVC, NVP, EGDA, and phenylacetyl bromide (BAP), with 10% DMSO as a control.

Where two headings read alike, the source gives them in different places.

`C=CN1CCCC1=O` [NVP, N-Vinylpyrrolidone]: the entries for the “Minimum propagator concentration for hydrogel formation” value in data set [1] (in G5 (10)) and in data set [1] (in G5 (80)) were 5 uL/mL and 0.3 uL/mL, respectively. In addition, in data set [2], the “Average Young's Modulus” value came to 6.4995 kPa. For the same compound, in the data set with RPE cells, the “Cell viability (cytotoxicity)” value is reported as “higher average cell viability than NVC”.

Consider `C=CN1CCCCCC1=O` [NVC, N-vinylcaprolactam], for which the “Average Young's Modulus” value in data set [2] is recorded as 3.4744 kPa.

Consider `C=CC(=O)OCCOC(=O)C=C` [EGDA, Ethylene Glycol Diacrylate], for which the “Minimum propagator concentration for hydrogel formation” value in data set [1] (in G5 (10)) turned out to be 1.5 uL/mL; in data set [1] (in G5 (80)), 0.1 uL/mL. Besides, in data set [2], the “Average Young's Modulus” value amounted to 7.2494 kPa. The “Cell viability (cytotoxicity)” value in the data set with RPE cells was “low cell viability”.

Regarding `O=C(Br)Cc1ccccc1` [BAP, phenylacetyl bromide], the “Cell viability (cytotoxicity)” value in the data set on RPE cells (after 18 hours of cell incubation, RPE cells, FIG. 19) is recorded as “higher average cell viability than NVC”.
